Test results reported in the supplement of paper PMC10307832.

Columns and labels:
Test in all cases: relative viability (nuclei count vs DMSO), 5 days (fraction); higher = more cells survive
[1] = compound: COc1cc2nccc(Oc3ccc(NC(=O)C4(C(=O)Nc5ccc(F)cc5)CC4)cc3)c2cc1OC [Cabozantinib] + C[C@]1(O)C[C@@H](c2nc(-c3ccc4ccc(-c5ccccc5)nc4c3)c3c(N)nccn32)C1 [Linsitinib] (partner 1 µM)
In short: (§1)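 Dosing by pin tool came one day after lung cancer cell lines were seeded in 1536-well plates, using either one drug or a fixed anchor-drug dose plus five library-drug doses (not always all listed) in √10 steps. After 5 days, nuclei were counted on 4× images. Relative viability is treated-well nuclei count divided by vehicle-well nuclei count, and values are medians of duplicate plates.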

Zosuquidar + Pemetrexed = compound: O[C@@H](COc1cccc2ncccc12)CN1CCN([C@@H]2c3ccccc3[C@@H]3[C@H](c4ccccc42)C3(F)F)CC1 [Zosuquidar] + Nc1nc2[nH]cc(CCc3ccc(C(=O)N[C@@H](CCC(=O)O)C(=O)O)cc3)c2c(=O)[nH]1 [Pemetrexed] (partner 0.2 µM)
In short: as §1

Zosuquidar + Palbociclib = compound: O[C@@H](COc1cccc2ncccc12)CN1CCN([C@@H]2c3ccccc3[C@@H]3[C@H](c4ccccc42)C3(F)F)CC1 [Zosuquidar] + CC(=O)c1c(C)c2cnc(Nc3ccc(N4CCNCC4)cn3)nc2n(C2CCCC2)c1=O [Palbociclib] (partner 0.5 µM)
In short: as §1

[2] = compound: COc1cc2nccc(Oc3ccc(NC(=O)C4(C(=O)Nc5ccc(F)cc5)CC4)cc3)c2cc1OC [Cabozantinib] + CS(=O)(=O)N1CCN(Cc2cc3nc(-c4cccc5[nH]ncc45)nc(N4CCOCC4)c3s2)CC1 [Pictilisib] (partner 1 µM)
In short: as §1

Cell Line	relative viability ([1]; first compound 0.02 µM)	relative viability ([1]; first compound 0.06325 µM)	relative viability ([1]; first compound 0.2 µM)	relative viability ([1]; first compound 0.6325 µM)	relative viability ([1]; first compound 2 µM)	relative viability (Zosuquidar + Pemetrexed; first compound 0.01 µM)	relative viability (Zosuquidar + Pemetrexed; first compound 0.03162 µM)	relative viability (Zosuquidar + Pemetrexed; first compound 0.1 µM)	relative viability (Zosuquidar + Pemetrexed; first compound 0.3162 µM)	relative viability (Zosuquidar + Pemetrexed; first compound 1 µM)	relative viability (Zosuquidar + Palbociclib; first compound 0.01 µM)	relative viability (Zosuquidar + Palbociclib; first compound 0.03162 µM)	relative viability (Zosuquidar + Palbociclib; first compound 0.1 µM)	relative viability (Zosuquidar + Palbociclib; first compound 0.3162 µM)	relative viability (Zosuquidar + Palbociclib; first compound 1 µM)	relative viability ([2]; first compound 0.02 µM)	relative viability ([2]; first compound 0.06325 µM)	relative viability ([2]; first compound 0.2 µM)	relative viability ([2]; first compound 0.6325 µM)	relative viability ([2]; first compound 2 µM)
LCLC-103H	1.21	1.01	1.07	0.986	1.05	0.495	0.489	0.453	0.46	0.46	0.453	0.717	0.513	0.489	0.482	0.524	0.622	0.58	0.606	0.528
NCI-H1395	1.25	1.27	1	1.13	0.958	0.718	0.983	–	1	0.811	0.596	0.664	–	0.64	0.549	0.657	0.644	0.609	0.675	0.689
NCI-H23	–	0.687	0.561	0.473	0.48	0.601	–	0.612	0.843	0.657	0.45	–	0.516	0.578	0.524	–	0.476	0.402	0.358	0.427
NCI-H322M	0.95	1	–	0.96	0.954	0.623	0.537	0.548	0.582	0.575	0.458	0.485	0.475	0.463	0.468	0.443	0.548	–	0.572	0.526
NCI-H2126	0.727	0.755	0.735	0.733	0.701	0.677	0.625	0.51	0.697	0.737	0.349	0.339	0.351	0.341	0.351	0.442	0.52	0.465	0.544	0.547
NCI-H647	1.28	1.53	1.33	1.12	1.11	0.188	0.177	0.178	0.168	0.139	0.386	0.406	0.452	0.377	0.361	0.434	0.571	0.481	0.362	0.398
LU99A	0.547	0.513	0.516	0.452	0.435	0.168	0.175	0.155	0.165	0.171	0.342	0.37	0.473	0.459	0.353	0.248	0.335	0.299	0.33	0.346
NCI-H1666	1.05	0.819	0.847	0.811	0.925	0.807	0.855	0.741	0.92	0.909	0.56	0.715	0.668	0.757	0.648	0.404	0.4	0.396	0.503	0.439
